Results on 6 molecules are retold here after patent publication US20260337177A1, “TEAD CORE INHIBITORS FOR CANCER THERAPEUTICS” (University of Florida Research Foundation, Incorporated, priority 2023, published 2026).

“And” between values parts separate entries of the source, which are not always exact repeats. Identical values can stand only once.

Data set [1] relates to Huh7 xenograft. Nature of the data set: Huh7 mouse xenograft model, antitumor efficacy. The format is in vivo, NSG mouse. Conditions: Sorafenib 100 mg/kg oral every three days for 24 days. The protocol: Based on the favorable in vitro potency and low toxicity, the in vivo antitumor efficacy of compound 22 was further evaluated in the NSG mouse (NOD scid gamma mouse) xenograft model from human Huh7 cells. Sorafenib, the first-line treatment for primary hepatocellular carcinoma (HCC) patients, served as the control. Compound 22 was tested as a monotherapy and in combination with Sorafenib.
The animals were administered 10 mg/kg of compound 22 twice a week for four weeks via intraperitoneal (IP) injection.
The mice were administered 50 mg/kg of compound 22 every three day for 24 days via intraperitoneal (IP) injection. Sorafenib was administered orally at a dose of 100 mg/kg following the same schedule.
Tumors were implanted by subcutaneous injection of 5×10^6 Huh7 cells in 100 μL of PBS containing 10% matrix gel (Coming, NY, USA), into the right flank of the mouse. When the tumor volume reached about 85 mm^3, mice were randomized into the vehicle control group (n=5) and a treatment group (n=5). The vehicle group (n=5) received the vehicle only (50% phosal 50 PG, 45% miglyol 810 N and 5% polysorbate 80), while the treatment group (n=5) was given compound 22 (50 mg/kg in 50% phosal 50 PG, 45% miglyol 810 N and 5% polysorbate 80) via IP injection every three days. After 24 days, mice were euthanized. Sorafenib (100 mg/kg, every three day) was dissolved in 75% Ethanol and Cremophor EL (1:1) and administered directly into the animals' stomachs using a gastric probe. Tumor size and body weight were measured every 3 days, and tumor volume was estimated using the formula volume=½×length×width^2. Tumor growth inhibition value (TGI) was calculated as TGI (%) [1−Vt/Vc]×100, where Vc and Vt were […].

For data set [2], the system named is CTGF. Nature of the data set: CTGF protein expression by western blotting in Huh7 cells. The class given is cell-based, human. The conditions noted are these: dose-dependent. The protocol: Treated Huh7 cells were harvested and lysed in cold RIPA lysis buffer containing […] and phosphatase inhibitors. The protein concentrations were determined using the BCA Protein Assay kit. The prepared protein samples were loaded on and separated by 10% SDS-PAGE gel and then were transferred to PVDF membrane. Blots were blocked for 1 h at RT in blocking buffer and incubated with corresponding primary antibodies: anti-CTGF (ab227180), and anti-GAPDH (ab9485), at 4 ° C overnight. Then the blots were incubated with HRP-conjugated anti-rabbit secondary antibody in blocking buffer for 1.5 h at RT. The membranes were imaged with ChemiDoc MP imaging system.

For data set [3], the system named is CTGF. Kind of data set: CTGF mRNA expression by RT-qPCR in Huh7 cells. The class given is cell-based, human. The conditions noted are these: dose-dependent. The protocol:
Huh7 and HepG2 liver cancer cells were seeded at 1×10^6 cells/dish and allowed to adhere overnight. The cells were then treated with indicated doses of compounds in medium for 24 hours. The cells were then harvested, and total RNA was purified using the Aurum total RNA mini kit (Bio-Rad #732-6820) according to the manufacturer's instructions. Complementary DNA was synthesized from 500 ng total RNA template by iScript reverse transcription kit (Bio-Rad #1725037) according to the manufacturer's instructions. Real-time PCR reactions utilized 60 ng cDNA and PrimePCR primers from Bio-Rad (Unique Assay ID: human GAPDH-qHsaCEP0041396, human CTGF-qHsaCEP0024255, human CYR61-qHsaCEP0024230) designed for SYBR Green gene expression analysis (Bio-Rad #1726270). All reactions were carried out in triplicate using Quant Studio 3 PCR system (Applied Biosystems). Relative gene expression level was quantified via ΔΔCt method by using GAPDH as an endogenous reference.
For orientation: In qPCR the cycle at which signal appears reflects the starting amount.

The subject of data set [4] is Huh7 cells. Kind of data set: Huh7 cell proliferation assay (CCK8). The class given is cell-based, human. The conditions noted are these: Homo sapiens, Huh-7, 72 h; 3 days; CCK8; mean ± SD of three independent experiments; read-out: Cell proliferation assay IC50, Huh7. The protocol: CCK8 assay kit was used to determine antiproliferative activity of synthesized compounds against Huh7 cell line. First, Huh7 cells were seeded into 96-well plates at a density of 3000 cells/well and incubated overnight. Cells were then co-incubated with compounds at 8 concentrations for 72 h. Then, the cell proliferation was determined by the CCK8 kit according to the standard protocol. Experiments were performed in triplicate.

Data set [5] relates to AML12 cells. Kind of data set: AML12 normal liver cell growth inhibition (CCK8). Conditions: for Inhibitory rate, AML12 (inhibitory percentage of AML12 cell growth): 10 μM, 3 days. The format is cell-based.
Data set [6] in a line: AML12 normal liver cell growth inhibition (CCK8). Conditions: mouse, aml12 cells. The class given is cell-based.
Data set [7] deals with TEADs. Nature of the data set: TEAD-specific 8×GTIIC-luciferase reporter assay. The class given is cell-based. Conditions: for inhibition at 10 µM: 8×GTIIC-luciferase, read-out: Luciferase reporter assay inhibitory rate; for IC50: dose response, read-out: TEADs transcription inhibition IC50, luciferase reporter assay. The protocol:
A series of compounds featuring a chloromethyl ketone moiety were synthesized (Schemes 1-4). The inhibitory rate of this series of compounds was tested using 8×GTIIC-luciferase reporter assay at 10 μM.
Next, the inhibition of TEAD transcription activity of compounds was tested varying the dosage using the 8×GTIIC-luciferase reporter assay. […] The aim was to determine whether its inhibition of TEAD transcription can lead to downregulation of the YAP-TEAD target genes. CTGF is one of the best characterized (bona fide) target gene of YAP and TAZ.
To further investigate the mechanism of the inhibitory effect of compounds in Huh7 cells, TEADs specific luciferase reporter assays were performed with compounds 22 and 12 at several concentrations. […] TEAD downstream gene expression patterns were evaluated in liver cancer cells Huh7, which has been evidenced with relative high expression of YAP and TEAD2.
HEK 293T cells were plated at 2×10^4 cells/well in a 96 well microplate and were transfected with 50 ng of 8×GTIIC-luciferase plasmid (Addgene #34615) and 0.5 ng of pRL-CMV (Promega #E226A) by using lipofectamine 3000 (Life Technologies #L3000). The 8×GTIIc-luciferase reporter is a Yap/Taz-activity reporter containing eight TEAD consensus binding sequences. After 6 h, transfected cells were treated with various concentrations of compounds or DMSO control. Luciferase signals were measured using the Dual Luciferase Reporter Assay System (Promega, E1960) according to the manufacturer's instructions. Experiments were performed in triplicate and repeated at least three times.

Data set [8] deals with TEAD. Kind of data set: Fluorescence polarization assay. The format is binding. Conditions: FIG. 1D. From the text:
FIGS. 1A-1D depict discovery of C-3 as moderate TEAD transcription inhibitor. (FIG. 1A) The flowchart of the docking-based virtual screening campaign. (FIG. 1B) Predicted binding mode of C-3 in TEAD2 lipid binding pocket.
On the technique in general: Fluorescence polarisation rises when a labelled molecule tumbles more slowly, as on binding a larger partner.

Data set [9] relates to TEAD. The conditions noted are these: literature; cited from earlier work.
For data set [10], the system named is YAP/TEAD. Conditions: literature; cited from earlier work.
In data set [11] the test system is YAP. Conditions: literature; cited from earlier work.
The subject of data set [12] is YAP-TEAD. Conditions: all four TEAD family members; cited from earlier work.
Data set [13] concerns YAP. Conditions: literature; cited from earlier work. The source holds these as a separate data set.

For `CNC(=O)c1cc(Oc2ccc(NC(=O)Nc3ccc(Cl)c(C(F)(F)F)c3)cc2)ccn1` [Sorafenib, reference compound], the “Tumor growth inhibition (TGI) rate” value in data set [1] was 76%.
Consider `O=C(CCl)c1c[nH]c2cc(Cl)c(OCc3ccc4ccccc4c3)cc12` [Compound 2, 2-chloro-1-(6-chloro-5-(naphthalen-2-ylmethoxy)-1H-indol-3-yl)ethan-1-one], for which the “CTGF protein expression, Huh7” value in [2] is “dose-dependent decrease”. The “CTGF mRNA expression, Huh7” value in [3] is “significantly decreased”. Further, the IC50 in data set [4] is 2300 ± 600 nM. In data set [5], the “Toxicity towards normal liver cell line AML12” value is given as “least toxic of the covalent compounds” and the “Inhibitory rate, AML12 (inhibitory percentage of AML12 cell growth)” value was found to be 32.1%. Moreover, the inhibition at 10 µM in data set [6] ("at 10 M", read-out: Inhibitory rate of AML cells) is 32%. In addition, in [7], the inhibition at 10 µM turned out to be 95.6%; the IC50 was 890 nM and 870 nM. Moreover, in data set [7] (varying dosage, FIGS. 3A-3B), the “TEAD transcription inhibition, luciferase reporter” value is “potent inhibition activity”.
Turning to `Clc1cc2[nH]ccc2cc1OCc1ccccc1` [Compound C-3], in data set [8], the “Fluorescence polarization, inhibition” value is “inhibition”. Further, the IC50 in data set [4] came to 32500 nM. Further, in data set [6] (10 μM, 3 days, read-out: Inhibitory rate, AML12 (inhibitory percentage of AML12 cell growth)), the inhibition at 72 h, 10 µM was 20%. Further, in [7], the inhibition at 10 µM was 68.3% and the IC50 amounted to 5000 nM.
As for `Cc1ccc2c(c1)c1c3n2CCNC3CCC1` (centres unmarked) [CPD3.1], in [9], the TEAD reporter activity result is “inhibits TEAD reporter activity”. Moreover, the “YAP/TEAD interaction, co-IP” value in data set [10] is recorded as “disrupt YAP/TEAD interaction”.
`COc1ccc(-c2cc(-c3ccccc3)nc3c2CC(=O)Nc2ccccc2-3)cc1OC` [NSC682769]: in data set [11], the YAP binding entry is listed as “directly bind to YAP”. In addition, in [12], the “Association of YAP with TEAD family members” value was “inhibit its association with all four TEAD family members”. Besides, in data set [13], the YAP expression result is “attenuates YAP expression”.
Regarding `O=C(CCl)NCc1c[nH]c2cc(Cl)c(OCc3ccccc3)cc12` [Compound 12, N-((5-(benzyloxy)-6-chloro-1H-indol-3-yl)methyl)-2-chloroacetamide], the “CTGF protein expression, Huh7” value in data set [2] is given as “suppression of CTGF protein production”. Further, in data set [3], the “CTGF mRNA expression, Huh7” value is listed as “suppressed”. In data set [4], the IC50 was 1200 ± 300 nM. Further, the “Inhibitory rate, AML12 (inhibitory percentage of AML12 cell growth)” value in data set [5] is on record as 34.2%. Further, in [7], the inhibition at 10 µM worked out at 97.8% and the IC50 amounted to 629 nM.
